Blank lines part the entries; values can stand above or below the compound they belong to. Active and inactive are the calls of the source.
Legend:
Beta-galactosidase = Beta-galactosidase (Escherichia coli, UniProt Q8VNN2); assay: PubChem AID 485352; assay type: functional
[1] = molecular target: T1, Type-1 angiotensin II receptor (Homo sapiens, UniProt P30556); assay: antagonism of angiotensin II type 1 receptor – cell-based, uHTS hits, selectivity assay for APJ receptor antagonist project, dose response (AID 463214); assay type: functional;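 also: antagonist potency against angiotensin II stimulated AT1 response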
T1 sequence (P30556 whole entry): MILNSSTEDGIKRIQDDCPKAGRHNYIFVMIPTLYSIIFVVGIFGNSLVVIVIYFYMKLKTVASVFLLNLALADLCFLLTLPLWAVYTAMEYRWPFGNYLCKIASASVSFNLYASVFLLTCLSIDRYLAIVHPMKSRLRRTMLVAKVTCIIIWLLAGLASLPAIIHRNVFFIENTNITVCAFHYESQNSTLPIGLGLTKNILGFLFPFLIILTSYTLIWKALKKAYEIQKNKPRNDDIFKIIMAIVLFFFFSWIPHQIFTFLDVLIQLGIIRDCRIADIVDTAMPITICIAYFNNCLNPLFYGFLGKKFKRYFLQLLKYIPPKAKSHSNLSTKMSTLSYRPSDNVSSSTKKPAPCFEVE

[2] = system: Streptococcus sp. 'group A'; assay: Streptococcus pyogenes SK(-)GAS viability under kanamycin – luminescence, BacTiterGlo, confirmation, counter-screen for streptokinase expression inhibitor project, dose response (AID 1900); assay type: functional, organism-based
Streptococcus = assay: GAS UMAA2166 growth inhibition – luminescence, BacTiterGlo, counter-screen for streptokinase expression inhibitor project, dose response (AID 1915); assay type: functional, organism-based;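 also: potency for reduction of bacterial viability or growth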
[3] = molecular target: T2, Sentrin-specific protease 7 (Homo sapiens, UniProt Q9BQF6); assay type: functional;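 also: Luminescence-based dose-response confirmation of ultra-high-throughput screening hits, measuring inhibition of SENP7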
T2 sequence (Q9BQF6 whole entry): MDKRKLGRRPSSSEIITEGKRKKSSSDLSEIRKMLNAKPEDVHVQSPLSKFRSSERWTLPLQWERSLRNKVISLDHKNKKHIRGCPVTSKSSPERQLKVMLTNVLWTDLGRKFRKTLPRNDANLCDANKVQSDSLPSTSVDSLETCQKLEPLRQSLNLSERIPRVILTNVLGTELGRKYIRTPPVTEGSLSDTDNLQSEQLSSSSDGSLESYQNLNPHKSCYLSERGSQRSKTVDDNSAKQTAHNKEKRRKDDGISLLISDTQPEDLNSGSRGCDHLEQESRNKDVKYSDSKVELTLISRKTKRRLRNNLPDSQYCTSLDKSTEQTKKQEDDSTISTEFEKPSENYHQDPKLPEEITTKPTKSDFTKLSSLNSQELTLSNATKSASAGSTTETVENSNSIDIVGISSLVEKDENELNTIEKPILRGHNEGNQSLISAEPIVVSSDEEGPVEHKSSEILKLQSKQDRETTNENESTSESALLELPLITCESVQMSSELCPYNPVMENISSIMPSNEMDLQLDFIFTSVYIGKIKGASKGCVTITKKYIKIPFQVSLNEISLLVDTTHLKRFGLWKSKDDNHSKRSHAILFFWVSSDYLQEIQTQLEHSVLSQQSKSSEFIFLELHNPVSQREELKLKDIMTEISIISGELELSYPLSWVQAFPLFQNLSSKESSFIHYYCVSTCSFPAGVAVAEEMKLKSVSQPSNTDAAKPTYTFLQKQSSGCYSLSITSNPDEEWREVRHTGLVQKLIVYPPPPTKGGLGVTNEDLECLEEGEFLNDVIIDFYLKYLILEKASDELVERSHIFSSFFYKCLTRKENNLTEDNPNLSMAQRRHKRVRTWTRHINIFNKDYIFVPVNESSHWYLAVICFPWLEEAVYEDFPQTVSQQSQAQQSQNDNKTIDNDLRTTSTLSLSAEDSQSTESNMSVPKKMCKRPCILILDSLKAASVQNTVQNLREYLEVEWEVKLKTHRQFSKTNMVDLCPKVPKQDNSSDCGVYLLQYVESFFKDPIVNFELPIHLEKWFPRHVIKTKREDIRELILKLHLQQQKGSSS

Caspase-3 [4] = molecular target: T3, Caspase-3 (Homo sapiens, UniProt P42574); assay type: functional
T3 sequence (P42574 whole entry): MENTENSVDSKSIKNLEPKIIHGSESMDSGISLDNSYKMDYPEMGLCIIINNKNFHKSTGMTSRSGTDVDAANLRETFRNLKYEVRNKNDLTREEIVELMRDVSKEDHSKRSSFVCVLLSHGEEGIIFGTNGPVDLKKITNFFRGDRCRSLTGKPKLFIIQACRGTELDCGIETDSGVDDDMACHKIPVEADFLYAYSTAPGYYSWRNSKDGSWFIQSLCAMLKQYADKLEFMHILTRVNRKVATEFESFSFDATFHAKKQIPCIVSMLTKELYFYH

[5] = molecular target: T4, Sentrin-specific protease 8 (Homo sapiens, UniProt Q96LD8); assay type: functional;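 also: luminescence read-out of SENP8 inhibition, dose-response confirmation following an ultra-high-throughput screen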
T4 sequence (Q96LD8 whole entry): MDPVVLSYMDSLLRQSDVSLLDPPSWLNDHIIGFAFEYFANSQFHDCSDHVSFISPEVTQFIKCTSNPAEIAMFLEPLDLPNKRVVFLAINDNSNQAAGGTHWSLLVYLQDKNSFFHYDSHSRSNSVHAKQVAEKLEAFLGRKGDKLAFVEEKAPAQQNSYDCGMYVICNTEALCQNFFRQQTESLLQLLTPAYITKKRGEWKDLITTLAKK

[6] = molecular target: T5, Sentrin-specific protease 6 (Homo sapiens, UniProt Q9GZR1); assay type: functional
T5 sequence (Q9GZR1 whole entry): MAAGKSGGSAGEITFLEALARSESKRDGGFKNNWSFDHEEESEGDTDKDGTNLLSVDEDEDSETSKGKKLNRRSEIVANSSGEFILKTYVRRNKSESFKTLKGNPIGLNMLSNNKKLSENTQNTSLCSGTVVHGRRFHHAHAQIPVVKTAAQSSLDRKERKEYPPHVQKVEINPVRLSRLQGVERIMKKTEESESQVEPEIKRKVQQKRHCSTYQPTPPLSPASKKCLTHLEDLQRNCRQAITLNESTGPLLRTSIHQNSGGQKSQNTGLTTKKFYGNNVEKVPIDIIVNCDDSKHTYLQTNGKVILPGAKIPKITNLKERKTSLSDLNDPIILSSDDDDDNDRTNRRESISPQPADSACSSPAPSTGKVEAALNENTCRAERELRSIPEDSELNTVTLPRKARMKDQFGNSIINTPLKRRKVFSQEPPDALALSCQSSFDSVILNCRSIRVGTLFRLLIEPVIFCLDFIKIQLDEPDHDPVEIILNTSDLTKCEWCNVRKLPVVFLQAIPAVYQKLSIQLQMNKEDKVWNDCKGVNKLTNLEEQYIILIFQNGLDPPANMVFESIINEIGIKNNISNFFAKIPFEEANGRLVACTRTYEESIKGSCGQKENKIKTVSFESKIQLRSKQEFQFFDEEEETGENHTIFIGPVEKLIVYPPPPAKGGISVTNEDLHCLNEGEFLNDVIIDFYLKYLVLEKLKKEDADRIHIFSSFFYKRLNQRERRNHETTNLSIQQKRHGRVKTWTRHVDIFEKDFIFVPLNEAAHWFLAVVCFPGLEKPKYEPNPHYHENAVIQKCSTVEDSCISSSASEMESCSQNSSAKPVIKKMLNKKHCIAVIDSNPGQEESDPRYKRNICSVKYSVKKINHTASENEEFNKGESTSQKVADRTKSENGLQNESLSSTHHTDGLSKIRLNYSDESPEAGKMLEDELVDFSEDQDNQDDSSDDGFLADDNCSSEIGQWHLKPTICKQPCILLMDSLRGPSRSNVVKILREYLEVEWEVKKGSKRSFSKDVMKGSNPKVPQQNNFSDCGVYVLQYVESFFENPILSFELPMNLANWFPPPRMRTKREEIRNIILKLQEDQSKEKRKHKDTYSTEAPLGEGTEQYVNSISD

Cytochrome P450 3A4 = Cytochrome P450 3A4 (Homo sapiens, UniProt P08684);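 also: CYP3A4 tested as one member of a cytochrome P450 panel screen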
HeLa = assay: ATP-based viability loss in HeLa cells – cell-based, CellTiter-Glo luminescence, cherry-pick samples, cytotoxicity control for MITF activator project, dose response (AID 540259); assay type: functional; conditions: Homo sapiens
[7] = molecular target: T5, Sentrin-specific protease 6; assay: SAR Analysis of small molecule inhibitors of Sentrin-specific protease 6 (SENP6) using a Luminescent assay. [Related pubchem assays (depositor defined):AID2582, AID2599]; assay type: functional
Caspase-3 [8] = molecular target: T3, Caspase-3; assay: SAR Analysis of small molecule inhibitors of Sentrin-specific proteases (SENPs) using a Caspase-3 Selectivity assay. [Related pubchem assays (depositor defined):AID2540, AID2599, AID434973, AID489001]; assay type: functional
[9] = molecular target: T4, Sentrin-specific protease 8; assay: inhibition of human SENP8 cleavage activity – biochemical, luminescence, SAR follow-up (AID 504501); assay type: functional
[10] = molecular target: T2, Sentrin-specific protease 7; assay: inhibition of human SENP7 cleavage activity – biochemical, luminescence, SAR follow-up (AID 504497); assay type: functional
[11] = molecular target: Beta-2 adrenergic receptor (Homo sapiens, UniProt P07550); assay: ADRB2 activation measured by internalization – cell-based, FAP fluorogen, flow cytometry, cherry pick 1, dose response (AID 588763); assay type: functional
HT-1080 = assay: HT1080 cell viability loss – fluorescence readout (AID 620); assay type: functional, cell-based; conditions: Homo sapiens
[12] = viability of uninfected HEp-2 cells – cell-based, HTS, cytotoxicity control for RSV inhibitor project, dose response (AID 2410); assay type: functional; conditions: human respiratory syncytial virus
[13] = molecular target: Luciferin 4-monooxygenase (Photinus pyralis, UniProt P08659); assay: Counter Screen for Luciferase-based Assay Positives. [Related pubchem assays: 620, 618, 411 ]
SN12K1 = assay: cells; assay type: functional; conditions: Homo sapiens
P388/ADR = assay: cells; assay type: functional; conditions: Mus musculus
P388 = assay: cells; assay type: functional; conditions: Mus musculus
[14] = blockers of HIV-1 ZM109 envelope-driven cell-cell fusion – HeLa effector, CEM target cells, luciferase, cherry-pick, dose response (AID 652058); assay type: functional, cell-based;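 also: luciferase signal from HIV-1 Env mediated cell-cell fusion of effector and target cells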
[15] = off-target signal loss in HeLa-CEM21 co-culture – HeLa F-luc CTL cells, cherry-picked, counter-screen for HIV-1 Env fusion inhibitor project, dose response (AID 652040); assay type: functional, cell-based;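 also: potency for signal decrease marking cytotoxic or nonspecific inhibition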
[16] = blockers of HIV-1 envelope-mediated cell-cell fusion – cherry-pick, dose response (AID 652057); assay type: functional, cell-based

Beta-galactosidase, sequence (Q8VNN2 whole entry): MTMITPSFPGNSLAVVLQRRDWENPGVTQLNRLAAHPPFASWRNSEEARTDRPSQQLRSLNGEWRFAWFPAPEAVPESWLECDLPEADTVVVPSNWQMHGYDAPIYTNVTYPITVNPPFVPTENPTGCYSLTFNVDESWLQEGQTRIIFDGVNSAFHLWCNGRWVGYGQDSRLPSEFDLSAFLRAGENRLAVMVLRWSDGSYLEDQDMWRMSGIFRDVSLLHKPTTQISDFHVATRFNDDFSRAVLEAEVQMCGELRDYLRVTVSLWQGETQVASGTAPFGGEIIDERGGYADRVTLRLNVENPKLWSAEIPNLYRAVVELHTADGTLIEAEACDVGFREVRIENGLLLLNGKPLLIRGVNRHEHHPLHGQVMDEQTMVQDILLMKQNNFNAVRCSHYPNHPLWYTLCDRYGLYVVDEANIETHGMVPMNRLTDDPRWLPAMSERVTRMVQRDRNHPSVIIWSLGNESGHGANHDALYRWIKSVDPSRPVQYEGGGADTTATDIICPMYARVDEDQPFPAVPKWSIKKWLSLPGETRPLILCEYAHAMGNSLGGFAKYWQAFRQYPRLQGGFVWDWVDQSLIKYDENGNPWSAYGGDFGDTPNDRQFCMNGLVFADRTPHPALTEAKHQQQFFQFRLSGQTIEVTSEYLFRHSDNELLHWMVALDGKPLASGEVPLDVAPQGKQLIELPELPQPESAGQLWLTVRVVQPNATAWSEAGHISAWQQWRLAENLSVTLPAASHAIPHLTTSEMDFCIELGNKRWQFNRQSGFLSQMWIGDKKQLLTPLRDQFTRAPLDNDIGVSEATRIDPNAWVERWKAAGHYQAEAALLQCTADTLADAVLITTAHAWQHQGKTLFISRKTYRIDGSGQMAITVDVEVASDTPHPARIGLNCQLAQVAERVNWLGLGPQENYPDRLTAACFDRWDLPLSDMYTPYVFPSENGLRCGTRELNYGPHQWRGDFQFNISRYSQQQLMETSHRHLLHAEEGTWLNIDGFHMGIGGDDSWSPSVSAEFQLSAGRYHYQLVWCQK
Beta-2 adrenergic receptor, sequence (P07550 whole entry): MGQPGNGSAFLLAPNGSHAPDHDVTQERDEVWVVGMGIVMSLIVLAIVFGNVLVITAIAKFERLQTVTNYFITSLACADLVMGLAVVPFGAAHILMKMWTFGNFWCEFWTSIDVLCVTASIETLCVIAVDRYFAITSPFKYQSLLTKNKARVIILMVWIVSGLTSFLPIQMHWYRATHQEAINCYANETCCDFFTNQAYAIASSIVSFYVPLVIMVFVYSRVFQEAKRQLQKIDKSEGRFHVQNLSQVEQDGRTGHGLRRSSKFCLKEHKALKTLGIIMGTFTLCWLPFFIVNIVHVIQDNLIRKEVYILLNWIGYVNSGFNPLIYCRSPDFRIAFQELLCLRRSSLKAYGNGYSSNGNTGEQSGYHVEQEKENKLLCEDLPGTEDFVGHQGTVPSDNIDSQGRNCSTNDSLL
Cytochrome P450 3A4, sequence (P08684 whole entry): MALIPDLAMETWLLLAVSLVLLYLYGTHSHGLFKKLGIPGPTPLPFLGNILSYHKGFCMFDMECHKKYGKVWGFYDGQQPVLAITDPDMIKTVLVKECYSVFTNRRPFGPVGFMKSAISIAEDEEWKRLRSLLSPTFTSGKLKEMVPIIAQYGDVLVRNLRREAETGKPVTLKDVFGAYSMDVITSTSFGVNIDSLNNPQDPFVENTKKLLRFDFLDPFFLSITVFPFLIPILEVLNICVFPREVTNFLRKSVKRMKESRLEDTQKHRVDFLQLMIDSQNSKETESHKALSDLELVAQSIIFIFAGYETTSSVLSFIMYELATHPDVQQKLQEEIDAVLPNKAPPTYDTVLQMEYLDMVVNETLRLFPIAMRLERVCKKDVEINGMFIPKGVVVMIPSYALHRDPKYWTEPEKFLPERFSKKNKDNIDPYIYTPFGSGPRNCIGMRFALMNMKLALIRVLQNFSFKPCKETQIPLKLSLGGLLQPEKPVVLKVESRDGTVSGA
Luciferin 4-monooxygenase, sequence (P08659 whole entry): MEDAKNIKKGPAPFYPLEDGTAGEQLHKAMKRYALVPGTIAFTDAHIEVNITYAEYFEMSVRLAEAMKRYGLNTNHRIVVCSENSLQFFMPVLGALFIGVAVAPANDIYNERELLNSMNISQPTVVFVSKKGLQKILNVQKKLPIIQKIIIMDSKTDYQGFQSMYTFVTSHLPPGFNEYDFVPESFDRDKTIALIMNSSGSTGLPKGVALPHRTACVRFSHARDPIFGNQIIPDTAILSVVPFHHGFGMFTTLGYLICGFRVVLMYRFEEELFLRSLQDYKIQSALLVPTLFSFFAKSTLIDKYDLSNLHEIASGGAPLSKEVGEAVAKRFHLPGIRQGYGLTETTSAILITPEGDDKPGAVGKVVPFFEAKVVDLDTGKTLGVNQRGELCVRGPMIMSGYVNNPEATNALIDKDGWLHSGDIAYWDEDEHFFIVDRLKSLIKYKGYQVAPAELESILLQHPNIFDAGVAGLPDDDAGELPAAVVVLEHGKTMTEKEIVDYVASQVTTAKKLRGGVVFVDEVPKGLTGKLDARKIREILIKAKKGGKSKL

Compound: O=C1N=c2ccc(Br)cc2=C1Nc1ccc(-c2nnc3n2CCCCC3)cc1
EC50 (Beta-galactosidase): > 40 µM (inactive) | IC50 [1]: 29.4 µM (not active)

Compound: Cc1cccc2sc(NC(=O)c3ccc(NS(=O)(=O)c4cccs4)cc3)nc12
EC50 [2]: 2.22 µM (active) | EC50 (Streptococcus): 3.77 µM (active) | IC50 [3]: 7.27 µM (active) | IC50 (Caspase-3 [4]): 36.5 µM (active) | IC50 [5]: 11.6 µM (active) | IC50 [6]: 8.6 µM (active)

Compound: CSc1ccc(CNc2ccc(Cl)cc2)cc1
AC50 (Cytochrome P450 3A4): inconclusive | AC50 (HeLa): 56.4 µM (active)

Compound: CCCC(=O)Nc1ccc(-c2nc3cc(C)ccc3o2)cc1
EC50 (HT-1080): > 50 µM (not active) | CC50 [12]: 26.7 µM (active) | EC50 [13]: 0.21 µM (active) | IC50 [3]: 4.35 µM (active) | IC50 (Caspase-3 [4]): 23.5 µM (active) | IC50 [5]: 45.2 µM (active) | IC50 [6]: 64.7 µM (active)

Compound: CCCSc1nc(COC(=O)NC)c(COC(=O)NC)n1C
GI50 (SN12K1): > 100 µM (inactive) | GI50 (P388/ADR): 23.8 µM (inactive) | GI50 (P388): 21.1 µM (inactive)

Compound: Nc1ccn(C2OC(COC(=O)C34CC5CC(CC(C5)C3)C4)C(O)C2O)c(=O)n1 (centres undefined)
GI50 (SN12K1): 4.46 µM (inactive) | GI50 (P388/ADR): 0.889 µM (active) | AC50 [14]: < 0.26 µM (active) | AC50 [15]: 36.9 µM (active) | GI50 (P388): 0.506 µM (active) | AC50 [16]: 0.652 µM (active)

Compound: c1cc2n(n1)CCN2
GI50 (SN12K1): 1150 µM (inactive) | GI50 (P388/ADR): 294 µM (inactive) | GI50 (P388): 361 µM (inactive)

Continued, in another order:

IC50 [7]: > 99 µM (inactive) | IC50 (Caspase-3 [8]): > 99 µM (inactive) | IC50 [10]: > 99 µM (inactive)
Compound: C(=N\Nc1ccccc1)/c1cn(Cc2ccccc2)c2ccccc12
IC50 [9]: > 99 µM (inactive)

EC50 [11]: 1.22 µM (active)
Compound: c1ccc(CSc2nnnn2-c2cccc3ccccc23)nc1

IC50 [7]: > 99 µM (inactive) | IC50 (Caspase-3 [8]): > 99 µM (inactive) | IC50 [10]: > 99 µM (inactive)
Compound: COc1cc(NC(=O)Nc2ccc(F)cc2)cc2sc(NC(=O)c3ccccc3)nc12
IC50 [9]: > 99 µM (inactive)

IC50 [7]: > 99 µM (inactive) | IC50 (Caspase-3 [8]): > 99 µM (inactive) | IC50 [10]: > 99 µM (inactive)
Compound: CCc1ccc(-c2nc(/C=C/c3ccc(F)cc3)no2)cc1
IC50 [9]: > 99 µM (inactive)

IC50 [3]: 8.48 µM (active) | IC50 (Caspase-3 [4]): 19.9 µM (active) | IC50 [6]: 22.5 µM (active)
Compound: N#Cc1ccccc1COC(=O)c1ccc2c(c1)OCCO2
IC50 [5]: 27.5 µM (active)

EC50 [11]: 0.0108 µM (active)
Compound: COc1ccc([C@H](C)NC[C@H](O)c2ccc(O)c(NC=O)c2)cc1

EC50 (Beta-galactosidase): > 40 µM (inactive) | IC50 [1]: 7.76 µM (active)
Compound: Cc1ccc(N=C2C(=O)Nc3ccc(Br)cc32)cc1
